Assay results from US8952024B2, “Herbicidal pyrimidone derivatives” (E I du Pont de Nemours and Company, priority 2009, dated 2015).

Key:
Format in all cases: in vivo
[1] = test system: bermudagrass (Cynodon dactylon); assay: Test B pre-/postemergence plant response
Method in brief: (§1)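 Steps: sow seed in loam–sand soil and spray preemergence, or grow plants in peat-based medium to 1–4 leaves (2–18 cm) and spray postemergence; formulation is non-phytotoxic solvent plus surfactant; hold in greenhouse 13–15 days; score visually vs controls, 0 = no effect, 100 = complete control.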

[2] = test system: goosegrass (Eleusine indica); assay: Test B pre-/postemergence plant response
Method in brief: as §1

[3] = test system: green foxtail (Setaria viridis); assay: Test B pre-/postemergence plant response
Method in brief: as §1

[4] = test system: lambsquarters (Chenopodium album); assay: Test B pre-/postemergence plant response
Method in brief: as §1

[5] = test system: large crabgrass (Digitaria sanguinalis); assay: Test B pre-/postemergence plant response
Method in brief: as §1

[6] = test system: morningglory (Ipomoea coccinea); assay: Test B pre-/postemergence plant response
Method in brief: as §1

[7] = test system: wheat (Triticum aestivum); assay: Test B pre-/postemergence plant response
Method in brief: as §1

wild oat (Avena fatua) = assay: Test B pre-/postemergence plant response
Method in brief: as §1

[8] = test system: yellow nutsedge (Cyperus esculentus); assay: Test B pre-/postemergence plant response
Method in brief: as §1

[9] = test system: barnyardgrass (Echinochloa crus-galli); assay: Test B flooded paddy test; details: for Plant response rating, Barnyardgrass: Flood (flooded paddy test), 13 to 15 days
Method in brief: (§2)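 Ratings are visual, 0–100 (100 = complete control), taken versus untreated controls 13 to 15 days after treatment in the greenhouse. Compound went straight into paddy water held 3 cm above soil, applied to 2-leaf-stage plants of four species.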

[10] = test system: umbrella sedge (Cyperus difformis); assay: Test B flooded paddy test; details: for Plant response rating, Sedge, Umbrella: Flood (flooded paddy test), 13 to 15 days
Method in brief: as §2

[11] = Postemergence, 31 g ai/ha, 0 to 100 scale (0 no effect, 100 complete control)
[12] = Postemergence, 62 g ai/ha, scale 0 to 100 (0 no effect, 100 complete control)
[13] = Postemergence, 125 g ai/ha, scale 0 (no effect) to 100 (complete control), 13 to 15 days
[14] = Postemergence, 250 g ai/ha, scale 0 to 100 (0 no effect, 100 complete control), 13 to 15 days
[15] = Preemergence, 31 g ai/ha, scale 0 to 100 (0 no effect, 100 complete control)
[16] = Preemergence, 62 g ai/ha, scale 0 to 100 (0 no effect, 100 complete control)
[17] = Preemergence, 125 g ai/ha, scale 0 to 100, 0 no effect, 100 complete control
[18] = Preemergence, 250 g ai/ha, 0 to 100 scale
[19] = 250 g ai/ha, flooded paddy test, visual rating on 0 to 100 scale (0 no effect, 100 complete control) after 13 to 15 days
[20] = 62 g ai/ha, scale of 0 to 100 where 0 is no effect and 100 is complete control
[21] = 125 g ai/ha, scale 0 to 100, 0 is no effect, 100 is complete control
[22] = Flood, 31 g ai/ha, scale 0 to 100 (0 no effect, 100 complete control)

## CCc1ccccc1-n1c(-c2ccccc2)ncc(C(=O)C2=C(O)CCCC2=O)c1=O [Compound 255]
[1]; [11]
  Plant response rating, Bermudagrass: 90
[1]; [12]
  Plant response rating, Bermudagrass: 95
[1]; [13]
  Plant response rating, Bermudagrass: 95
[1]; [14]
  Plant response rating, Bermudagrass: 100
[1]; [15]
  Plant response rating, Bermudagrass: 100
[1]; [16]
  Plant response rating, Bermudagrass: 100
[1]; [17]
  Plant response rating, Bermudagrass: 100
[1]; Preemergence, 250 g ai/ha, 0 to 100 scale, 0 no effect, 100 complete control
  Bermudagrass plant response rating: 100
[2]; [11]
  Plant response rating, Goosegrass: 90
[2]; [12]
  Plant response rating, Goosegrass: 90
[2]; [13]
  Plant response rating, Goosegrass: 95
[2]; [14]
  Plant response rating, Goosegrass: 98
[2]; [15]
  Plant response rating, Goosegrass: 80
[2]; [16]
  Plant response rating, Goosegrass: 98
[2]; [17]
  Plant response rating, Goosegrass: 100
[2]; [18]
  Goosegrass plant response rating: 100
[3]; [11]
  Plant response rating, Foxtail, Green: 85
[3]; [12]
  Plant response rating, Foxtail, Green: 90
[3]; [13]
  Plant response rating, Foxtail, Green: 90
[3]; [14]
  Plant response rating, Foxtail, Green: 90
[3]; [15]
  Plant response rating, Foxtail, Green: 0
[3]; [16]
  Plant response rating, Foxtail, Green: 80
[3]; [17]
  Plant response rating, Foxtail, Green: 80
[3]; [18]
  Foxtail, Green plant response rating: 100
[4]; [11]
  Plant response rating, Lambsquarters: 90
[4]; [12]
  Plant response rating, Lambsquarters: 95
[4]; [13]
  Plant response rating, Lambsquarters: 98
[4]; [14]
  Plant response rating, Lambsquarters: 100
[4]; [15]
  Plant response rating, Lambsquarters: 98
[4]; [16]
  Plant response rating, Lambsquarters: 100
[4]; [17]
  Plant response rating, Lambsquarters: 100
[4]; [18]
  Lambsquarters plant response rating: 100
[5]; [11]
  Plant response rating, Crabgrass, Large: 85
[5]; [12]
  Plant response rating, Crabgrass, Large: 85
[5]; [13]
  Plant response rating, Crabgrass, Large: 90
[5]; [14]
  Plant response rating, Crabgrass, Large: 95
[5]; [15]
  Plant response rating, Crabgrass, Large: 80
[5]; [16]
  Plant response rating, Crabgrass, Large: 95
[5]; [17]
  Plant response rating, Crabgrass, Large: 100
[5]; [18]
  Crabgrass, Large plant response rating: 100
[6]; [11]
  Plant response rating, Morningglory: 75
[6]; [12]
  Plant response rating, Morningglory: 85
[6]; [13]
  Plant response rating, Morningglory: 85
[6]; [14]
  Plant response rating, Morningglory: 100
[6]; [15]
  Plant response rating, Morningglory: 40
[6]; [16]
  Plant response rating, Morningglory: 55
[6]; [17]
  Plant response rating, Morningglory: 65
[6]; [18]
  Morningglory plant response rating: 90
[7]; [11]
  Plant response rating, Wheat: 35
[7]; [12]
  Plant response rating, Wheat: 40
[7]; [13]
  Plant response rating, Wheat: 50
[7]; [14]
  Plant response rating, Wheat: 80
[7]; [15]
  Plant response rating, Wheat: 0
[7]; [16]
  Plant response rating, Wheat: 0
[7]; [17]
  Plant response rating, Wheat: 0
[7]; [18]
  Wheat plant response rating: 5
Wild oat (Avena fatua); [11]
  Plant response rating, Oat, Wild: 65
Wild oat (Avena fatua); [12]
  Plant response rating, Oat, Wild: 80
Wild oat (Avena fatua); [13]
  Plant response rating, Oat, Wild: 85
Wild oat (Avena fatua); [14]
  Plant response rating, Oat, Wild: 90
Wild oat (Avena fatua); [15]
  Plant response rating, Oat, Wild: 0
Wild oat (Avena fatua); [16]
  Plant response rating, Oat, Wild: 0
Wild oat (Avena fatua); [17]
  Plant response rating, Oat, Wild: 60
Wild oat (Avena fatua); [18]
  Oat, Wild plant response rating: 90
[8]; [11]
  Plant response rating, Nutsedge, Yellow: 10
[8]; [12]
  Plant response rating, Nutsedge, Yellow: 15
[8]; [13]
  Plant response rating, Nutsedge, Yellow: 15
[8]; [14]
  Plant response rating, Nutsedge, Yellow: 60
[8]; [15]
  Plant response rating, Nutsedge, Yellow: 10
[8]; [16]
  Plant response rating, Nutsedge, Yellow: 25
[8]; [17]
  Plant response rating, Nutsedge, Yellow: 40
[8]; [18]
  Nutsedge, Yellow plant response rating: 90
[9]; [19]
  Plant response rating, Flood, Barnyardgrass: 0
[9]; [20]
  Plant response rating, Barnyardgrass: 0
[9]; [21]
  Plant response rating, Barnyardgrass: 0
[9]; [22]
  Barnyardgrass plant response rating: 0
[10]; [19]
  Plant response rating, Flood, Sedge, Umbrella: 60
[10]; [20]
  Plant response rating, Sedge, Umbrella: 20
[10]; [21]
  Plant response rating, Sedge, Umbrella: 50
[10]; [22]
  Sedge, Umbrella plant response rating: 0
